From PMC10882696, “Novel 5-Substituted Oxindole Derivatives as Bruton’s Tyrosine Kinase Inhibitors: Design, Synthesis, Docking, Molecular Dynamics Simulation, and Biological Evaluation” (ACS Omega, 2024)
“Also recorded” adds a separate entry of the source.

Tests used:
CCRF-CEM = assay: 3 day MTS cytotoxicity assay, CCRF-CEM; type: cell-based; settings: Homo sapiens, ITK-positive, mean ± SD, n ≥ 6
Description: (§1) The cytotoxic activity of all the 10 compounds was tested under in vitro conditions using a 3 day standard 3-(4,5-dimethylthiazol-2yl)-5-(3-carboxymethoxyphenyl)-2-(4-sulfophenyl)-2H-tetrazolium reduction assay in 384-well plates on a robotic high-throughput screening platform (HighResBio, Boston, MA) as described elsewhere.[38] The IC50 values were calculated from the respective dose–response curves of compounds with Dotmatics (San Diego, CA, USA).

U2OS = assay: 3 day MTS cytotoxicity assay, U2OS; type: cell-based; settings: Homo sapiens, ITK/BTK-negative, mean ± SD, n ≥ 6
Description: as §1

Lyn phosphorylation = assay: Western blot of Lyn phosphorylation in RAMOS cells; type: cell-based, human; settings: 24 h
Description: (§2) RAMOS cells were plated at 0.5 × 10^6/mL density in six-well plates. After 24 h, cells were treated with compounds at concentrations of 1, 10, and 50 μM for 24 h. The concentration of the vehicle was 0.5% in the highest test drug concentration (50 μM). LPS stimulation of RAMOS cells followed by drug treatment was performed as described previously.[19] […]
(§3) Primary antibodies used were purchased from Cell Signaling Technology, Inc., Massachusetts, USA, and included BTK (1:1000; Cat. # 3533S), phosphor-BTK (Tyr223) (1:1000; Cat # 5082S), p44/42 MAPK (ERK1/2) (1:1000; Cat # 9102S), phospho-p44/42 MAPK (ERK1/2) (Thr202/Tyr204) (1:1000; Cat # 4376S), p38 MAPK (1:1000; Cat # 9212S), phospho-p38 MAPK (Thr180/Tyr182) (1:1000; Cat # 9211S), Lyn (C13F9) (1:1000: Cat # 2796), phospho-Lyn (Tyr507) (1:1000; Cat #2731), Syk (1:1000; Cat # 2712), phospho-Syk (Tyr525/526) (C87C1) (1:1000; Cat # 2710), and GAPDH (1:4000; Cat. # 2118). […] Band intensities were quantified using NIH ImageJ Software (NIH, Bethesda, Maryland, USA).

p-p38 (Thr180/Tyr182) = assay: Western blot of p-p38 in LPS-stimulated RAMOS cells; type: cell-based, human; settings: RAMOS cells stimulated with LPS 10 min, then 50 μM for 3 h
Description: as §2, §3

JURKAT = assay: 3 day MTS cytotoxicity assay, JURKAT; type: cell-based; settings: Homo sapiens, ITK-positive, mean ± SD, n ≥ 6
Description: as §1

Plasma protein binding = type: in vitro ADME; settings: in vitro, read-out: plasma protein binding (% bound) (converted)
HCT116 = assay: 3 day MTS cytotoxicity assay, HCT116; type: cell-based; settings: Homo sapiens, HCT-116; HCT116, ITK/BTK-negative; mean ± SD, n ≥ 6
Description: as §1

Caco-2 cells = assay: Caco-2 permeability (gastrointestinal resorption model); type: in vitro ADME; settings: for active efflux: Caco-2; for Caco-2 category: Caco-2 permeability
Description: (§4) Selected compounds were assayed for human plasma and liver microsomal stability in vitro, PAMPA and cellular permeability models of gastrointestinal resorption, and the blood–brain barrier using Caco-2 and MDR1-MCDK cells as previously described.[38] Samples were analyzed in an Agilent RapidFire 300 High-Throughput Mass Spectrometry System (RF-MS; Agilent, Wakefield, MA) with subsequent detection in a Qtrap 5500 mass spectrometer (AB Sciex, Concord, Canada).

[1] = as above; type: in vitro ADME; settings: human, Caco-2
Description: as §4

MRC-5 = assay: 3 day MTS cytotoxicity assay, MRC-5; type: cell-based; settings: Homo sapiens, MRC5; MRC-5, non-cancer fibroblasts; mean ± SD, n ≥ 6
Description: as §1

K562 = assay: 3 day MTS cytotoxicity assay, K562; type: cell-based; settings: Homo sapiens; K562, BTK-positive; mean ± SD, n ≥ 6
Description: as §1

[2] = Parallel artificial membrane permeability assay (PAMPA); type: in vitro ADME; settings: passive diffusion
Description: as §4

RAMOS = assay: 3 day MTS cytotoxicity assay, RAMOS; type: cell-based, human; settings: for activity in RAMOS cells: BTK-high; for IC50: Homo sapiens, Ramos, BTK-positive, mean ± SD, n ≥ 6
Description: as §1

BJ = assay: 3 day MTS cytotoxicity assay, BJ; type: cell-based; settings: Homo sapiens, non-cancer fibroblasts, mean ± SD, n ≥ 6
Description: as §1

[3] = Liver microsomal stability; type: in vitro ADME; settings: human liver microsomes, intrinsic clearance category
Description: as §4

pBTK (Tyr223) [4] = assay: Western blot of pBTK in LPS-stimulated RAMOS cells; type: cell-based, human; settings: RAMOS cells stimulated with LPS 10 min, then 50 μM for 3 h
Description: as §2, §3

MDR1-MDCK cells = assay: MDR1-MDCK permeability (blood–brain barrier model); type: in vitro ADME
Description: as §4

MDR1 = assay: MDR1-MDCK permeability (blood–brain barrier model); type: in vitro ADME; settings: dog
Description: as §4

[5] = MDR1-MDCK permeability (blood–brain barrier model); type: in vitro ADME; settings: dog
Description: as §4

HCT116p53^–/– = assay: 3 day MTS cytotoxicity assay, HCT116p53-/-; type: cell-based; settings: ITK/BTK-negative, mean ± SD, n ≥ 6
Description: as §1

A549 = assay: 3 day MTS cytotoxicity assay, A549; type: cell-based; settings: Homo sapiens; A549, ITK/BTK-negative; mean ± SD, n ≥ 6
Description: as §1

Plasma stability = type: in vitro ADME; settings: human plasma, in vitro
Description: as §4

Syk phosphorylation = assay: Western blot of Syk phosphorylation in RAMOS cells; type: cell-based, human; settings: 24 h
Description: as §2, §3

pBTK (Tyr223) [6] = assay: Western blot of BTK phosphorylation in RAMOS cells; type: cell-based, human
Description: as §2, §3

pERK 1/2 (Thr202/Tyr204) = assay: Western blot of pERK1/2 in LPS-stimulated RAMOS cells; type: cell-based, human; settings: RAMOS cells stimulated with LPS 10 min, then 50 μM for 3 h
Description: as §2, §3

Compound | IC50 (CCRF-CEM) [µM] | IC50 (U2OS) [µM] | IC50 (JURKAT) [µM] | fraction unbound (Plasma protein binding) | IC50 (HCT116) [µM] | active efflux (Caco-2 cells) | Caco-2 category (Caco-2 cells) | Papp [1] [×10⁻⁶ cm/s] | efflux ratio [1] | recovery [1] [%] | IC50 (MRC-5) [µM] | IC50 (K562) [µM] | PAMPA category [2] | activity in RAMOS cells (RAMOS) | IC50 (RAMOS) [µM] | IC50 (BJ) [µM] | microsomal stability (clearance) [3] | MDR1-MDCK CNS (−ive/+ive) (MDR1-MDCK cells) | active efflux (MDR1-MDCK cells) | Papp (MDR1) [×10⁻⁶ cm/s] | further results
O=C1Nc2ccc(S(=O)(=O)N3CCN(C(=O)C4CCCCC4)CC3)cc2C1=C1CCCC1 [9b, 5-((4-(Cyclohexanecarbonyl)piperazin-1-yl)sulfonyl)-3-cyclopentylideneindolin-2-one] | 35.5 ± 7.05 | > 50 | > 50 | 0.114 | > 50 | active efflux: yes | low permeability and low | 3.18 | 2.69 | 45.4 | > 50 | > 50 | low | selective cytotoxicity; also recorded: showed activity; also recorded: good anticancer activity in the micromole range | 3.04 ± 0.56 | > 50 | metabolized quickly by microsomes and high | CNS –ive | active efflux: yes | 2.92 | Lyn phosphorylation (Lyn phosphorylation): significantly inhibited; p-p38 (Thr180/Tyr182) levels (p-p38 (Thr180/Tyr182)): only evidenced on p-p38 (Thr180/Tyr182) levels; pBTK (Tyr223) activation (pBTK (Tyr223) [4]): no significant effect; efflux ratio (MDR1): 9.3; recovery [5]: 60.2%; IC50 (HCT116p53^–/–): > 50 µM; IC50 (A549): > 50 µM; plasma stability (category) (Plasma stability): stable
O=C1Nc2ccc(S(=O)(=O)N3CCN(C(=O)c4cccc(Br)c4)CC3)cc2C1=C1CCCC1 [9f, 5-((4-(3-Bromobenzoyl)piperazin-1-yl)sulfonyl)-3-cyclopentylideneindolin-2-one] | > 50 | > 50 | > 50 | 0.043 | > 50 | active efflux: yes | medium permeability; also recorded: moderate | 10.6 | 3.79 | 74.5 | > 50 | > 50 | low | selective cytotoxicity; also recorded: showed activity; also recorded: good anticancer activity in the micromole range | 2.06 ± 0.43 | > 50 | medium | CNS –ive | active efflux: yes | 3.2 | efflux ratio (MDR1): 6.93; recovery [5]: 79.2%; IC50 (HCT116p53^–/–): > 50 µM; IC50 (A549): > 50 µM; plasma stability (category) (Plasma stability): stable
CCCCC(=O)N1CCN(S(=O)(=O)c2ccc3c(c2)C(=C2CCCC2)C(=O)N3)CC1 [9h, 3-Cyclopentylidene-5-((4-pentanoylpiperazin-1-yl)sulfonyl)indolin-2-one] | 46.1 ± 3.13 | > 50 | > 50 | 0.0334 | > 50 | active efflux: yes | medium permeability; also recorded: moderate | 7.18 | 3.34 | 63.2 | > 50 | > 50 | medium | selective cytotoxicity; also recorded: showed activity; also recorded: good anticancer activity in the micromole range | 2.75 ± 0.8 | > 50 | medium | CNS –ive | active efflux: yes | 5.43 | Lyn phosphorylation (Lyn phosphorylation): without affecting; also recorded: did not affect; p-p38 (Thr180/Tyr182) levels (p-p38 (Thr180/Tyr182)): decrease; Syk phosphorylation (Syk phosphorylation): without affecting; also recorded: did not affect; pBTK (Tyr223) activation (pBTK (Tyr223) [4]): significantly inhibited; pBTK (Tyr223) levels (pBTK (Tyr223) [6]; 24 h, 50 μM): decrease was significant; pBTK (Tyr223) levels (pBTK (Tyr223) [6]; 24 h, 1, 10, and 50 μM): selective inhibition of pBTK (Tyr223); efflux ratio (MDR1): 13.1; recovery [5]: 86.9%; IC50 (HCT116p53^–/–): > 50 µM; IC50 (A549): > 50 µM; plasma stability (category) (Plasma stability): stable; pERK 1/2 (Thr202/Tyr204) levels (pERK 1/2 (Thr202/Tyr204)): decrease
